Measurements as given in the RepoRT retention time repository.

Assay: HILIC, Waters ACQUITY UPLC BEH Amide, 100 × 2.1 mm, 1.7 µm; A: water + 0.125% formic acid + 10 mM ammonium formate; B: 5% water + 95% acetonitrile + 0.125% formic acid + 10 mM ammonium formate; gradient (min/%B) 0/100 2/100 7.7/70 9.5/40 10.25/30 12.75/100 17/100
Details: stereoisomer not certain

Row | SMILES | LC retention time [min]
1 | Nc1c2c(nc3ccccc13)CCCC2 [Tacrine] | 3.86
2 | C=CCC1C=C(C)CC(C)CC(OC)C2OC(O)(C(=O)C(=O)N3CCCCC3C(=O)OC(C(C)=CC3CCC(O)C(OC)C3)C(C)C(O)CC1=O)C(C)CC2OC (configuration not stated) [Tacrolimus] | 1.07
3 | CN1CC(=O)N2C(Cc3c([nH]c4ccccc34)C2c2ccc3c(c2)OCO3)C1=O (configuration not stated) [Taldalafil] | 1.19
4 | CN=C(N)NCCCC(N)C(=O)O (configuration not stated) [Targinine] | 9.22
5 | NCCS(=O)(=O)O [Taurine] | 7.85
6 | CC(CCC(=O)NCCS(=O)(=O)O)C1CCC2C3C(O)CC4CC(O)CCC4(C)C3CC(O)C12C (configuration not stated) [Taurocholic acid] | 6.12
7 | O=C1c2c(O)cc(O)cc2OC(c2ccc(O)c(O)c2)C1O (configuration not stated) [Taxifolin] | 1.78
8 | O=c1[nH]c(=O)n(C2CCCO2)cc1F (configuration not stated) [Tegafur] | 1.22
9 | CCCCCN=C(N)NN=Cc1c[nH]c2ccc(OC)cc12 [Tegaserod] | 2.84
10 | CCCc1nc2c(C)cc(-c3nc4ccccc4n3C)cc2n1Cc1ccc(-c2ccccc2C(=O)O)cc1 [Telmisartan] | 1.25
11 | CN1C(=O)C(O)N=C(c2ccccc2)c2cc(Cl)ccc21 (configuration not stated) [Temazepam] | 1.15
12 | Cn1nnc2c(C(N)=O)ncn2c1=O [Temozolomide] | 1.33
13 | COc1cc2nc(N3CCN(C(=O)C4CCCO4)CC3)nc(N)c2cc1OC (configuration not stated) [Terazosin] | 4.66
14 | CN(CC=CC#CC(C)(C)C)Cc1cccc2ccccc12 [Terbinafine] | 1.33
15 | CC12CCC(=O)C=C1CCC1C2CCC2(C)C(O)CCC12 (configuration not stated) [Testosterone] | 1.05
16 | CCNC(=O)CCC(N)C(=O)O (configuration not stated) [Theanine] | 7.66
17 | Cn1c(=O)c2[nH]cnc2n(C)c1=O [Theophylline] | 1.54
18 | O=C(O)C1CSCN1 (configuration not stated) [Thiazolidine-4-carboxylic acid] | 6.92
19 | N=c1ccc2nc3ccc(N)cc3sc-2c1 [Thionin] | 5.23

Row | SMILES | LC retention time [min]
20 | OCC(O)C(O)CO (configuration not stated) [Threitol] | 1.56
21 | Cc1cn(C2CC(O)C(CO)O2)c(=O)[nH]c1=O (configuration not stated) [Thymidine] | 2.57
22 | Cc1cn(C2CC(O)C(COP(=O)(O)O)O2)c(=O)[nH]c1=O (configuration not stated) [Thymidine 5'-monophosphate] | 8.28
23 | Cc1ccc(C(C)C)c(O)c1 [Thymol] | 1.53
24 | Cc1ccsc1C(=CCCN1CCCC(C(=O)O)C1)c1sccc1C (configuration not stated) [Tiagabine] | 3.94
25 | C#CC1(O)CCC2C3C(C)CC4=C(CCC(=O)C4)C3CCC21C (configuration not stated) [Tibolone] | 1
26 | Clc1ccccc1CN1CCc2sccc2C1 [Ticlopidine] | 1.12
27 | CCS(=O)(=O)CCn1c([N+](=O)[O-])cnc1C [Tinidazole] | 1.04
28 | Cc1cccc(C)c1NC(=O)C(C)N (configuration not stated) [Tocainide] | 4.97
29 | Cc1ccc(O)c(C(CCN(C(C)C)C(C)C)c2ccccc2)c1 (configuration not stated) [Tolterodine] | 2.13
30 | CCCc1c(OCCCCc2nn[nH]n2)ccc(C(C)=O)c1O [Tomelukast] | 1.04
31 | CC1(C)OC2COC3(COS(N)(=O)=O)OC(C)(C)OC3C2O1 (configuration not stated) [Topiramate] | 1.1
32 | CCC1(O)C(=O)OCc2c1cc1n(c2=O)Cc2cc3c(CN(C)C)c(O)ccc3nc2-1 (configuration not stated) [Topotecan] | 5.72
33 | O=C(c1ccccc1)c1ccc2n1CCC2C(=O)O (configuration not stated) [Toradol] | 1.29
34 | Cc1cccc(Nc2ccncc2S(=O)(=O)NC(=O)NC(C)C)c1 [Torasemide] | 1.45
35 | CN(C)CCOc1ccc(C(=C(CCCl)c2ccccc2)c2ccccc2)cc1 [Toremifene] | 1.89
36 | NC1CCN(c2nc3c(cc2F)c(=O)c(C(=O)O)cn3-c2ccc(F)cc2F)C1 (configuration not stated) [Tosufloxacin] | 4.87
37 | COc1cccc(C2(O)CCCCC2CN(C)C)c1 (configuration not stated) [Tramadol] | 2.52
